Measured values from PubChem BioAssay (NCI).
“And” between values parts separate entries of the source, which are not always exact repeats. Identical values can stand only once.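 Each compound was tested at five concentrations against cells in 96-well plates for 48 hours. GI50 is the concentration that inhibits growth by half. TGI: concentration producing complete growth inhibition.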

What was measured:
Assay in all cases: NCI anticancer screen, dose series, 48 h
HOP-92 NSCLC = system: HOP-92 NSCLC
UACC-62 melanoma = system: UACC-62 melanoma
A549 NSCLC = system: A549 NSCLC
MDA-MB-435 = system: MDA-MB-435
K-562 leukemia = system: K-562 leukemia
UO-31 renal = system: UO-31 renal
DU-145 prostate = system: DU-145 prostate
CAKI-1 renal = system: CAKI-1 renal
SNB-75 CNS = system: SNB-75 CNS
SF-539 CNS = system: SF-539 CNS
NCI/ADR-RES ovarian = system: NCI/ADR-RES ovarian
MDA-MB-231 breast = system: MDA-MB-231 breast
EKVX NSCLC = system: EKVX NSCLC
TK-10 renal = system: TK-10 renal
SNB-19 CNS = system: SNB-19 CNS
SN12C renal = system: SN12C renal
LOX IMVI melanoma = system: LOX IMVI melanoma
HOP-62 NSCLC = system: HOP-62 NSCLC
NCI-H522 lung = system: NCI-H522 lung
NCI-H226 lung = system: NCI-H226 lung
IGROV1 ovarian = system: IGROV1 ovarian
KM12 colon = system: KM12 colon
SF-268 CNS = system: SF-268 CNS
MOLT-4 leukemia = system: MOLT-4 leukemia
OVCAR-8 ovarian = system: OVCAR-8 ovarian
CCRF-CEM leukemia = system: CCRF-CEM leukemia
COLO 205 colon = system: COLO 205 colon
M14 melanoma = system: M14 melanoma
SK-MEL-2 melanoma = system: SK-MEL-2 melanoma
SK-MEL-28 melanoma = system: SK-MEL-28 melanoma
HCC-2998 colon = system: HCC-2998 colon
SK-OV-3 ovarian = system: SK-OV-3 ovarian
NCI-H460 lung = system: NCI-H460 lung
OVCAR-4 ovarian = system: OVCAR-4 ovarian
SK-MEL-5 melanoma = system: SK-MEL-5 melanoma
HCT-116 colon = system: HCT-116 colon
OVCAR-3 ovarian = system: OVCAR-3 ovarian
MCF7 breast = system: MCF7 breast
SW-620 colon = system: SW-620 colon
HCT-15 colon = system: HCT-15 colon
786-0 renal = system: 786-0 renal
HT29 colon = system: HT29 colon
HL-60(TB) leukemia = system: HL-60(TB) leukemia
T-47D breast = system: T-47D breast
UACC-257 melanoma = system: UACC-257 melanoma
OVCAR-5 ovarian = system: OVCAR-5 ovarian
U251 CNS = system: U251 CNS
MALME-3M melanoma = system: MALME-3M melanoma
PC-3 prostate = system: PC-3 prostate
SF-295 CNS = system: SF-295 CNS
RXF 393 renal = system: RXF 393 renal
A498 renal = system: A498 renal
ACHN renal = system: ACHN renal
SR leukemia = system: SR leukemia
NCI-H23 lung = system: NCI-H23 lung
BT-549 breast = system: BT-549 breast
RPMI-8226 leukemia = system: RPMI-8226 leukemia
HS 578T breast = system: HS 578T breast

## O=CC12c3ccccc3C(c3ccccc31)C1C(=O)NC(=O)C12 (stereo unspecified)
HOP-92 NSCLC
  TGI: > 100000 nM
UACC-62 melanoma
  TGI: > 100000 nM
A549 NSCLC
  TGI: > 100000 nM
MDA-MB-435
  TGI: > 100000 nM
K-562 leukemia
  TGI: > 100000 nM
UO-31 renal
  TGI: > 100000 nM
DU-145 prostate
  TGI: > 100000 nM
CAKI-1 renal
  TGI: > 100000 nM
SNB-75 CNS
  TGI: > 100000 nM
SF-539 CNS
  TGI: > 100000 nM
NCI/ADR-RES ovarian
  TGI: > 100000 nM
MDA-MB-231 breast
  TGI: > 100000 nM
EKVX NSCLC
  TGI: > 100000 nM
TK-10 renal
  TGI: > 100000 nM
SNB-19 CNS
  TGI: > 100000 nM
SN12C renal
  TGI: > 100000 nM
LOX IMVI melanoma
  TGI: > 100000 nM
HOP-62 NSCLC
  TGI: > 100000 nM
NCI-H522 lung
  TGI: > 100000 nM
NCI-H226 lung
  TGI: > 100000 nM
IGROV1 ovarian
  TGI: > 100000 nM
KM12 colon
  TGI: > 100000 nM
SF-268 CNS
  TGI: > 100000 nM
MOLT-4 leukemia
  TGI: > 100000 nM
OVCAR-8 ovarian
  TGI: > 100000 nM
CCRF-CEM leukemia
  TGI: > 100000 nM
COLO 205 colon
  TGI: > 100000 nM
M14 melanoma
  TGI: > 100000 nM
SK-MEL-2 melanoma
  TGI: > 100000 nM
SK-MEL-28 melanoma
  TGI: > 100000 nM
HCC-2998 colon
  TGI: > 100000 nM
SK-OV-3 ovarian
  TGI: > 100000 nM
NCI-H460 lung
  TGI: > 100000 nM
OVCAR-4 ovarian
  TGI: > 100000 nM
SK-MEL-5 melanoma
  TGI: > 100000 nM
HCT-116 colon
  TGI: > 100000 nM
OVCAR-3 ovarian
  TGI: > 100000 nM
MCF7 breast
  TGI: 47700 nM
SW-620 colon
  TGI: > 100000 nM
HCT-15 colon
  TGI: > 100000 nM
786-0 renal
  TGI: > 100000 nM
HT29 colon
  TGI: > 100000 nM
HL-60(TB) leukemia
  TGI: > 100000 nM
T-47D breast
  TGI: > 100000 nM
UACC-257 melanoma
  TGI: > 100000 nM
OVCAR-5 ovarian
  TGI: > 100000 nM
U251 CNS
  TGI: > 100000 nM
MALME-3M melanoma
  TGI: > 100000 nM
PC-3 prostate
  TGI: > 100000 nM
SF-295 CNS
  TGI: > 100000 nM
RXF 393 renal
  TGI: > 100000 nM
A498 renal
  TGI: 48200 nM
ACHN renal
  TGI: > 100000 nM
SR leukemia
  TGI: > 100000 nM
NCI-H23 lung
  TGI: > 100000 nM

## COc1ccc2c(NCCCCCCCCNc3c4ccccc4nc4cc(OC)ccc34)c3ccccc3nc2c1
HOP-92 NSCLC
  GI50: 1240 nM
  TGI: 2580 nM
K-562 leukemia
  GI50: 52.9 nM
  TGI: 300 nM
UO-31 renal
  GI50: 48.8 nM
  TGI: 223 nM
DU-145 prostate
  GI50: 49.8 nM
  TGI: 339 nM
TK-10 renal
  GI50: 126 nM
  TGI: 763 nM
HOP-62 NSCLC
  GI50: 65.8 nM
  TGI: 318 nM
NCI-H522 lung
  GI50: 11 nM
  TGI: 187 nM
NCI-H226 lung
  GI50: 128 nM
  TGI: 961 nM
IGROV1 ovarian
  TGI: 108 nM
MOLT-4 leukemia
  GI50: 54.6 nM
  TGI: 2320 nM
CCRF-CEM leukemia
  GI50: 25.3 nM
  TGI: 431 nM
SK-MEL-2 melanoma
  GI50: 162 nM
  TGI: 358 nM
HCC-2998 colon
  GI50: 71.8 nM
  TGI: 254 nM
OVCAR-4 ovarian
  GI50: 93.8 nM
  TGI: 446 nM
MCF7 breast
  GI50: 27.9 nM
  TGI: 192 nM
HL-60(TB) leukemia
  GI50: 363 nM
  TGI: 2130 nM
T-47D breast
  GI50: 50.8 nM
  TGI: 295 nM
UACC-257 melanoma
  GI50: 221 nM
  TGI: 1070 nM
RXF 393 renal
  GI50: 117 nM
  TGI: 332 nM
A498 renal
  GI50: 129 nM
  TGI: 437 nM

## COc1ccc(-c2cc(=O)oc3ccc(Cl)cc23)cc1F
HOP-92 NSCLC
  TGI: 7940 nM
UACC-62 melanoma
  GI50: 37.7 nM and 40.6 nM
  TGI: > 100000 nM
A549 NSCLC
  GI50: 268 nM and 105 nM
  TGI: > 100000 nM
MDA-MB-435
  GI50: 23.3 nM and 20 nM
  TGI: 67.5 nM and 53.1 nM
BT-549 breast
  GI50: 303 nM and 66.5 nM
  TGI: 6620 nM
K-562 leukemia
  GI50: 43.5 nM and 40.1 nM
UO-31 renal
  GI50: 755 nM and 1200 nM
  TGI: > 100000 nM
DU-145 prostate
  GI50: 255 nM and 261 nM
  TGI: 4160 nM and 27300 nM
CAKI-1 renal
  TGI: > 100000 nM
SF-539 CNS
  GI50: 126 nM and 47.5 nM
  TGI: 733 nM and 479 nM
NCI/ADR-RES ovarian
  GI50: 44.2 nM and 47.8 nM
MDA-MB-231 breast
  TGI: > 100000 nM
EKVX NSCLC
  GI50: 509 nM and 362 nM
  TGI: > 100000 nM
TK-10 renal
  GI50: 435 nM
  TGI: 79600 nM
RPMI-8226 leukemia
  GI50: 297 nM and 106 nM
  TGI: > 100000 nM
SNB-19 CNS
  GI50: 350 nM and 74.4 nM
  TGI: > 100000 nM
SN12C renal
  TGI: > 100000 nM
LOX IMVI melanoma
  GI50: 186 nM and 69.5 nM
  TGI: > 100000 nM
HOP-62 NSCLC
  GI50: 208 nM and 188 nM
  TGI: 27300 nM
NCI-H522 lung
  GI50: 34.9 nM and 21.8 nM
NCI-H226 lung
  GI50: 705 nM and 3940 nM
  TGI: > 100000 nM
IGROV1 ovarian
  GI50: 1160 nM and 683 nM
  TGI: > 100000 nM
KM12 colon
  GI50: 71.2 nM and 52.4 nM
  TGI: 11000 nM
SF-268 CNS
  GI50: 616 nM and 302 nM
  TGI: > 100000 nM
HS 578T breast
  GI50: 181 nM and 75.4 nM
  TGI: 68900 nM
MOLT-4 leukemia
  GI50: 310 nM and 57.1 nM
  TGI: > 100000 nM
OVCAR-8 ovarian
  GI50: 490 nM and 327 nM
  TGI: > 100000 nM
CCRF-CEM leukemia
  GI50: 222 nM and 59.9 nM
  TGI: > 100000 nM
COLO 205 colon
  GI50: 146 nM and 85.3 nM
  TGI: 1090 nM and 896 nM
M14 melanoma
  GI50: 51.9 nM and 42.3 nM
  TGI: > 100000 nM
SK-MEL-2 melanoma
  GI50: 212 nM and 38.5 nM
  TGI: 2680 nM
SK-MEL-28 melanoma
  GI50: 1710 nM and 3050 nM
  TGI: > 100000 nM
HCC-2998 colon
  GI50: 590 nM and 243 nM
  TGI: 30200 nM
SK-OV-3 ovarian
  GI50: 384 nM and 209 nM
  TGI: > 100000 nM
NCI-H460 lung
  GI50: 167 nM and 49.9 nM
  TGI: 21800 nM
OVCAR-4 ovarian
  GI50: 1030 nM and 5590 nM
  TGI: > 100000 nM
SK-MEL-5 melanoma
  GI50: 140 nM and 71.7 nM
  TGI: 835 nM and 2350 nM
HCT-116 colon
  GI50: 91.3 nM and 44.7 nM
  TGI: 3630 nM and 10700 nM
OVCAR-3 ovarian
  GI50: 50.2 nM and 37.9 nM
  TGI: 497 nM and 345 nM
MCF7 breast
  GI50: 78.5 nM and 46.8 nM
  TGI: 18600 nM
SW-620 colon
  GI50: 53 nM and 43.1 nM
  TGI: > 100000 nM
HCT-15 colon
  GI50: 53.7 nM and 46.3 nM
  TGI: 10400 nM
786-0 renal
  GI50: 366 nM and 87.7 nM
  TGI: > 100000 nM
HT29 colon
  GI50: 53.8 nM and 39.7 nM
  TGI: 336 nM
HL-60(TB) leukemia
  GI50: 129 nM and 33.9 nM
  TGI: 908 nM and 480 nM
UACC-257 melanoma
  GI50: 23200 nM
  TGI: > 100000 nM
OVCAR-5 ovarian
  GI50: 633 nM and 1260 nM
  TGI: > 100000 nM
U251 CNS
  GI50: 331 nM and 51.9 nM
  TGI: 12600 nM
MALME-3M melanoma
  GI50: 59200 nM
  TGI: > 100000 nM
PC-3 prostate
  GI50: 274 nM and 79.7 nM
  TGI: > 100000 nM
SF-295 CNS
  GI50: 84.5 nM and 36.7 nM
  TGI: 14200 nM
RXF 393 renal
  GI50: 141 nM and 233 nM
A498 renal
  GI50: 103 nM and 47.1 nM
  TGI: 790 nM and 5170 nM
ACHN renal
  TGI: > 100000 nM
SR leukemia
  GI50: 42.6 nM
NCI-H23 lung
  GI50: 302 nM and 413 nM
  TGI: 96000 nM

## CCOC(=O)/C=C(/N=P(c1ccccc1)(c1ccccc1)c1ccccc1)C(F)(F)F
UO-31 renal
  TGI: > 100000 nM
NCI-H522 lung
  TGI: > 100000 nM
HCC-2998 colon
  TGI: > 100000 nM
SK-OV-3 ovarian
  TGI: > 100000 nM
T-47D breast
  TGI: > 100000 nM
